From the supplement of paper PMC10307832

Legend:
Assay in all cases: relative viability (nuclei count vs DMSO), 5 days (fraction); higher = more cells survive
IPA-3 + Bortezomib = compound: C1=CC=C2C(=C1)C=CC(=C2SSC3=C(C=CC4=CC=CC=C43)O)O [IPA-3] + CC(C)C[C@H](NC(=O)[C@H](Cc1ccccc1)NC(=O)c1cnccn1)B(O)O [Bortezomib] (partner 0.002 µM)
In short: (§1)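 Relative viability was taken as the ratio of nuclei in treated wells to nuclei in vehicle wells. Lung cancer cell lines in 1536-well plates received compounds by pin tool one day after seeding, either one drug alone or a fixed anchor-drug dose plus five library-drug doses (not always all listed) in √10 steps. Nuclei were counted on 4× images after 5 days of treatment, and values are medians of duplicate plates.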

Doramapimod + Bortezomib = compound: Cc1ccc(-n2nc(C(C)(C)C)cc2NC(=O)Nc2ccc(OCCN3CCOCC3)c3ccccc23)cc1 [Doramapimod] + CC(C)C[C@H](NC(=O)[C@H](Cc1ccccc1)NC(=O)c1cnccn1)B(O)O [Bortezomib] (partner 0.002 µM)
In short: as §1

Doramapimod + Dasatinib = compound: Cc1ccc(-n2nc(C(C)(C)C)cc2NC(=O)Nc2ccc(OCCN3CCOCC3)c3ccccc23)cc1 [Doramapimod] + Cc1nc(Nc2ncc(C(=O)Nc3c(C)cccc3Cl)s2)cc(N2CCN(CCO)CC2)n1 [Dasatinib] (partner 0.075 µM)
In short: as §1

Doramapimod + Crizotinib = compound: Cc1ccc(-n2nc(C(C)(C)C)cc2NC(=O)Nc2ccc(OCCN3CCOCC3)c3ccccc23)cc1 [Doramapimod] + C[C@@H](Oc1cc(-c2cnn(C3CCNCC3)c2)cnc1N)c1c(Cl)ccc(F)c1Cl [Crizotinib] (partner 1 µM)
In short: as §1

| Cell Line | relative viability (IPA-3 + Bortezomib; first compound 0.2 µM) | relative viability (IPA-3 + Bortezomib; first compound 0.6325 µM) | relative viability (IPA-3 + Bortezomib; first compound 2 µM) | relative viability (IPA-3 + Bortezomib; first compound 6.325 µM) | relative viability (IPA-3 + Bortezomib; first compound 20 µM) | relative viability (Doramapimod + Bortezomib; first compound 0.02 µM) | relative viability (Doramapimod + Bortezomib; first compound 0.06325 µM) | relative viability (Doramapimod + Bortezomib; first compound 0.2 µM) | relative viability (Doramapimod + Bortezomib; first compound 0.6325 µM) | relative viability (Doramapimod + Bortezomib; first compound 2 µM) | relative viability (Doramapimod + Dasatinib; first compound 0.02 µM) | relative viability (Doramapimod + Dasatinib; first compound 0.06325 µM) | relative viability (Doramapimod + Dasatinib; first compound 0.2 µM) | relative viability (Doramapimod + Dasatinib; first compound 0.6325 µM) | relative viability (Doramapimod + Dasatinib; first compound 2 µM) | relative viability (Doramapimod + Crizotinib; first compound 0.02 µM) | relative viability (Doramapimod + Crizotinib; first compound 0.06325 µM) | relative viability (Doramapimod + Crizotinib; first compound 0.2 µM) | relative viability (Doramapimod + Crizotinib; first compound 0.6325 µM) | relative viability (Doramapimod + Crizotinib; first compound 2 µM) |
| --- | --- | --- | --- | --- | --- | --- | --- | --- | --- | --- | --- | --- | --- | --- | --- | --- | --- | --- | --- | --- |
| NCI-H727 | 0.841 | 0.788 | 0.857 | 0.866 | 1.12 | 0.853 | 0.818 | 0.775 | 0.705 | 0.87 | 0.352 | 0.341 | 0.283 | 0.353 | 0.388 | 0.973 | 1.06 | 0.862 | 0.643 | 0.759 |
| HARA | 1.16 | 1.06 | 1.13 | 1.01 | 1.24 | 1.15 | 1.03 | 1.14 | 1.04 | 0.994 | 0.194 | 0.274 | 0.277 |  | 0.199 | 1.27 | 0.966 | 0.965 | 1.08 | 0.992 |
| NCI-H2228 | 1.24 | 1.04 | 1.07 | 1.15 | 0.855 | 0.952 | 0.966 | 1.11 | 1.06 | 0.758 | 0.561 | 0.48 | 0.452 | 0.49 | 0.398 | 0.465 | 0.385 | 0.425 | 0.546 | 0.44 |
| LCLC-97TM1 | 0.524 | 0.847 | 0.814 | 0.438 | 0.575 | 0.587 | 1.27 | 0.905 | 0.378 | 0.521 | 0.837 | 0.87 | 0.768 | 0.699 | 0.591 | 0.326 | 0.357 | 0.31 | 0.338 | 0.209 |
| LC-2-ad | 1 | 0.974 | 1.05 | 0.983 | 0.998 | 0.985 | 1.12 | 1.06 | 1.14 | 0.94 | 0.464 | 0.514 | 0.638 | 0.561 | 0.391 | 0.531 | 0.451 | 0.448 | 0.435 | 0.385 |
| SK-LU-1 | 1.14 | 1.21 | 1.09 | 1.19 | 1.62 | 1.41 | 1.37 | 1.51 |  | 1.15 | 0.16 | 0.182 | 0.195 | 0.204 | 0.218 | 0.915 | 0.929 | 0.909 | 0.83 | 0.92 |
| EKVX | 1.31 | 0.995 | 1.12 | 0.988 | 1.54 | 1.04 | 0.997 | 1.08 | 0.967 | 1.11 | 0.544 | 0.49 | 0.561 | 0.584 | 0.491 | 0.986 | 0.98 | 0.822 | 0.951 | 0.918 |
| HCC-827 | 1.1 | 0.936 | 1.01 | 0.996 | 1 | 0.963 | 1.03 | 1.01 | 0.931 | 0.969 | 0.272 | 0.238 | 0.286 | 0.355 | 0.142 | 0.95 | 0.869 | 0.949 | 0.841 | 0.666 |
| NCI-H650 | 0.972 | 0.83 | 0.798 | 0.858 | 1.22 | 0.882 | 1.11 | 1.03 | 0.737 | 0.874 | 0.517 | 0.535 | 0.571 | 0.586 | 0.431 | 0.77 | 0.661 | 0.826 | 0.783 | 0.668 |
| CAL-12T | 0.956 | 0.987 | 0.847 | 0.935 | 1.15 | 1.01 | 1.11 | 1.16 | 1 | 0.818 | 0.521 | 0.371 | 0.306 | 0.44 | 0.348 | 0.687 | 0.726 | 0.746 | 0.635 | 0.727 |
| NCI-H522 |  |  |  |  |  |  |  |  |  |  | 0.715 | 0.851 | 0.863 | 0.785 | 0.812 |  |  |  |  |  |
| IA-LM | 0.883 | 0.808 | 0.842 | 0.703 | 0.546 | 0.842 | 0.757 | 0.795 | 0.92 | 0.656 |  |  |  |  |  | 0.856 |  | 0.699 | 0.795 | 0.792 |
| EPLC-272H | 0.87 | 0.95 | 0.816 | 0.861 | 1.13 | 0.873 | 0.779 | 0.848 | 0.881 | 0.655 | 0.438 | 0.326 | 0.435 | 0.479 | 0.332 | 0.942 | 0.975 | 1.17 | 0.974 | 0.972 |
| A-427 | 0.976 | 0.974 | 1.01 | 0.942 | 1.01 | 0.907 | 1.05 | 1 |  | 1.12 | 0.728 | 0.768 | 0.733 |  | 0.672 | 0.927 | 0.933 | 0.98 |  | 0.932 |
| NCI-H647 | 1.77 | 0.939 | 0.654 | 0.614 | 0.121 | 1.13 | 0.985 | 0.912 | 1.05 | 0.861 | 0.179 | 0.19 | 0.157 | 0.21 | 0.147 | 1.1 | 1.03 | 0.992 | 0.96 | 0.833 |
| NCI-H1975 | 0.373 | 0.375 | 0.387 | 0.421 | 0.481 | 0.321 | 0.324 | 0.266 | 0.363 | 0.327 | 0.284 | 0.365 | 0.353 | 0.374 | 0.357 | 1.05 | 0.944 | 0.897 | 0.973 | 0.96 |
| NCI-H358 |  |  |  |  |  |  |  |  |  |  | 0.164 | 0.156 | 0.162 | 0.204 | 0.171 | 0.531 | 0.614 | 0.552 | 0.702 | 0.509 |
| PC-3 [JPC-3] | 0.92 | 0.885 | 0.786 | 0.824 | 0.873 | 0.909 | 0.926 | 0.832 | 0.939 | 0.943 | 1 | 1.04 | 0.939 | 1.05 | 1.02 | 1 | 1 | 1.06 | 1.08 | 0.955 |
